Assay results as given in the NIST ThermoML archive (doi:10.1021/acs.jced.8b00201).

Test: xn = mol fraction of the nth substance listed
Conditions: 100 kPa, Liquid; for viscosity: Concentric cylinders viscometry; for mass density: Vibrating tube method

CCCCCCCO [heptan-1-ol] + O=C1CCCCC1
Conditions	mass density [kg/m3]	viscosity [mPa·s]
293.15 K, x2 = 0	822.2	7.03
293.15 K, x2 = 0.0809	829.7	6.06
293.15 K, x2 = 0.1601	837.3	5.23
293.15 K, x2 = 0.2406	845.4	4.49
293.15 K, x2 = 0.3511	857.4	3.68
293.15 K, x2 = 0.4227	865.6	3.27
293.15 K, x2 = 0.5754	884.4	2.71
293.15 K, x2 = 0.6492	894.2	2.59
293.15 K, x2 = 0.7422	907.3	2.46
293.15 K, x2 = 0.8513	923.9	2.38
293.15 K, x2 = 0.9385	938.2	2.35
298.15 K, x2 = 0	818.7	5.92
298.15 K, x2 = 0.0809	826	5.15
298.15 K, x2 = 0.1601	833.5	4.46
298.15 K, x2 = 0.2406	841.4	3.89
298.15 K, x2 = 0.3511	853.1	3.22
298.15 K, x2 = 0.4227	861.2	2.83
298.15 K, x2 = 0.5754	879.6	2.39
298.15 K, x2 = 0.6492	889.3	2.29
298.15 K, x2 = 0.7422	902.2	2.19
298.15 K, x2 = 0.8513	918.5	2.12
298.15 K, x2 = 0.9385	932.6	2.09
303.15 K, x2 = 0	815.2	5.03
303.15 K, x2 = 0.0809	822.3	4.41
303.15 K, x2 = 0.1601	829.7	3.86
303.15 K, x2 = 0.2406	837.5	3.37
303.15 K, x2 = 0.3511	849	2.82
303.15 K, x2 = 0.4227	857	2.51
303.15 K, x2 = 0.5754	875.2	2.11
303.15 K, x2 = 0.6492	884.8	2.04
303.15 K, x2 = 0.7422	897.6	1.97
303.15 K, x2 = 0.8513	913.8	1.94
303.15 K, x2 = 0.9385	927.7	1.93
308.15 K, x2 = 0	811.6	4.3
308.15 K, x2 = 0.0809	818.7	3.78
308.15 K, x2 = 0.1601	825.9	3.32
308.15 K, x2 = 0.2406	833.6	2.93
308.15 K, x2 = 0.3511	845	2.49
308.15 K, x2 = 0.4227	852.8	2.26
308.15 K, x2 = 0.5754	870.9	1.93
308.15 K, x2 = 0.6492	880.4	1.85
308.15 K, x2 = 0.7422	893.1	1.78
308.15 K, x2 = 0.8513	909.2	1.75
308.15 K, x2 = 0.9385	923.1	1.76
313.15 K, x2 = 0	808	3.71
313.15 K, x2 = 0.0809	814.9	3.24
313.15 K, x2 = 0.1601	822.1	2.86
313.15 K, x2 = 0.2406	829.7	2.54
313.15 K, x2 = 0.3511	840.9	2.19
313.15 K, x2 = 0.4227	848.7	2.03
313.15 K, x2 = 0.5754	866.6	1.77
313.15 K, x2 = 0.6492	876	1.72
313.15 K, x2 = 0.7422	888.6	1.65
313.15 K, x2 = 0.8513	904.5	1.62
313.15 K, x2 = 0.9385	918.4	1.6
318.15 K, x2 = 0	804.4	3.21
318.15 K, x2 = 0.0809	811.2	2.83
318.15 K, x2 = 0.1601	818.3	2.5
318.15 K, x2 = 0.2406	825.8	2.23
318.15 K, x2 = 0.3511	836.9	1.95
318.15 K, x2 = 0.4227	844.6	1.82
318.15 K, x2 = 0.5754	862.3	1.61
318.15 K, x2 = 0.6492	871.7	1.57
318.15 K, x2 = 0.7422	884.2	1.51
318.15 K, x2 = 0.8513	900.2	1.49
318.15 K, x2 = 0.9385	914.1	1.47
323.15 K, x2 = 0	800.7	2.79
323.15 K, x2 = 0.0809	807.5	2.49
323.15 K, x2 = 0.1601	814.5	2.23
323.15 K, x2 = 0.2406	821.9	2.01
323.15 K, x2 = 0.3511	833	1.77
323.15 K, x2 = 0.4227	840.7	1.64
323.15 K, x2 = 0.5754	858.4	1.45
323.15 K, x2 = 0.6492	867.7	1.4
323.15 K, x2 = 0.7422	880.3	1.35
323.15 K, x2 = 0.8513	896.4	1.33
323.15 K, x2 = 0.9385	910.2	1.33
